# Measurements from ChEMBL document CHEMBL4765227, “Hit to lead optimization of a series of N-[4-(1,3-benzothiazol-2-yl)phenyl]acetamides as monoacylglycerol lipase inhibitors with potential anticancer activity” (Eur J Med Chem, 2016).
# Columns and labels:
# Format in all cases: functional
# Conditions in all cases: read-out: GI
# HL-60(TB) = test: Growth inhibition of human HL-60(TB) cells at 10 uM incubated for 48 hrs by sulforhodamine B assay relative to control
# K562 = test: Growth inhibition of human K562 cells at 10 uM incubated for 48 hrs by sulforhodamine B assay relative to control
# MOLT-4 = test: Growth inhibition of human MOLT-4 cells at 10 uM incubated for 48 hrs by sulforhodamine B assay relative to control
# RPMI-8226 = test: Growth inhibition of human RPMI-8226 cells at 10 uM incubated for 48 hrs by sulforhodamine B assay relative to control
# SR = test: Growth inhibition of human SR cells at 10 uM incubated for 48 hrs by sulforhodamine B assay relative to control
# A549 = test: Growth inhibition of human A549/ATCC cells at 10 uM incubated for 48 hrs by sulforhodamine B assay relative to control
# NCI-H226 = test: Growth inhibition of human NCI-H226 cells at 10 uM incubated for 48 hrs by sulforhodamine B assay relative to control
# NCI-H23 = test: Growth inhibition of human NCI-H23 cells at 10 uM incubated for 48 hrs by sulforhodamine B assay relative to control
# NCI-H322M = test: Growth inhibition of human NCI-H322M cells at 10 uM incubated for 48 hrs by sulforhodamine B assay relative to control
# NCI-H522 = test: Growth inhibition of human NCI-H522 cells at 10 uM incubated for 48 hrs by sulforhodamine B assay relative to control
# HCC 2998 = test: Growth inhibition of human HCC 2998 cells at 10 uM incubated for 48 hrs by sulforhodamine B assay relative to control
# HT-29 = test: Growth inhibition of human HT-29 cells at 10 uM incubated for 48 hrs by sulforhodamine B assay relative to control
# KM12 = test: Growth inhibition of human KM12 cells at 10 uM incubated for 48 hrs by sulforhodamine B assay relative to control
# SF-268 = test: Growth inhibition of human SF-268 cells at 10 uM incubated for 48 hrs by sulforhodamine B assay relative to control
# SF-295 = test: Growth inhibition of human SF-295 cells at 10 uM incubated for 48 hrs by sulforhodamine B assay relative to control
# SF-539 = test: Growth inhibition of human SF-539 cells at 10 uM incubated for 48 hrs by sulforhodamine B assay relative to control
# SNB-19 = test: Growth inhibition of human SNB-19 cells at 10 uM incubated for 48 hrs by sulforhodamine B assay relative to control
# U-251 = test: Growth inhibition of human U-251 cells at 10 uM incubated for 48 hrs by sulforhodamine B assay relative to control
# Malme-3M = test: Growth inhibition of human Malme-3M cells at 10 uM incubated for 48 hrs by sulforhodamine B assay relative to control
# M14 = test: Growth inhibition of human M14 cells at 10 uM incubated for 48 hrs by sulforhodamine B assay relative to control
# MDA-MB-435 = test: Growth inhibition of human MDA-MB-435 cells at 10 uM incubated for 48 hrs by sulforhodamine B assay relative to control
# SK-MEL-5 = test: Growth inhibition of human SK-MEL-5 cells at 10 uM incubated for 48 hrs by sulforhodamine B assay relative to control
# UACC-257 = test: Growth inhibition of human UACC-257 cells at 10 uM incubated for 48 hrs by sulforhodamine B assay relative to control
# UACC-62 = test: Growth inhibition of human UACC-62 cells at 10 uM incubated for 48 hrs by sulforhodamine B assay relative to control
# IGROV-1 = test: Growth inhibition of human IGROV-1 cells at 10 uM incubated for 48 hrs by sulforhodamine B assay relative to control
# OVCAR-3 = test: Growth inhibition of human OVCAR-3 cells at 10 uM incubated for 48 hrs by sulforhodamine B assay relative to control
# OVCAR-4 = test: Growth inhibition of human OVCAR-4 cells at 10 uM incubated for 48 hrs by sulforhodamine B assay relative to control
# OVCAR-5 = test: Growth inhibition of human OVCAR-5 cells at 10 uM incubated for 48 hrs by sulforhodamine B assay relative to control
# OVCAR-8 = test: Growth inhibition of human OVCAR-8 cells at 10 uM incubated for 48 hrs by sulforhodamine B assay relative to control
# SK-OV-3 = test: Growth inhibition of human SK-OV-3 cells at 10 uM incubated for 48 hrs by sulforhodamine B assay relative to control
# 786-0 = test: Growth inhibition of human 786-0 cells at 10 uM incubated for 48 hrs by sulforhodamine B assay relative to control
# ACHN = test: Growth inhibition of human ACHN cells at 10 uM incubated for 48 hrs by sulforhodamine B assay relative to control
# RXF 393 = test: Growth inhibition of human RXF 393 cells at 10 uM incubated for 48 hrs by sulforhodamine B assay relative to control
# SN12C = test: Growth inhibition of human SN12C cells at 10 uM incubated for 48 hrs by sulforhodamine B assay relative to control
# TK-10 = test: Growth inhibition of human TK-10 cells at 10 uM incubated for 48 hrs by sulforhodamine B assay relative to control
# UO-31 = test: Growth inhibition of human UO-31 cells at 10 uM incubated for 48 hrs by sulforhodamine B assay relative to control
# PC-3 = test: Growth inhibition of human PC-3 cells at 10 uM incubated for 48 hrs by sulforhodamine B assay relative to control
# DU-145 = test: Growth inhibition of human DU-145 cells at 10 uM incubated for 48 hrs by sulforhodamine B assay relative to control
# MCF7 = test: Growth inhibition of human MCF7 cells at 10 uM incubated for 48 hrs by sulforhodamine B assay relative to control
# MDA-MB-231 = test: Growth inhibition of human MDA-MB-231 cells at 10 uM incubated for 48 hrs by sulforhodamine B assay relative to control
# Hs-578T = test: Growth inhibition of human Hs-578T cells at 10 uM incubated for 48 hrs by sulforhodamine B assay relative to control
# BT-549 = test: Growth inhibition of human BT-549 cells at 10 uM incubated for 48 hrs by sulforhodamine B assay relative to control
# T47D = test: Growth inhibition of human T47D cells at 10 uM incubated for 48 hrs by sulforhodamine B assay relative to control
# MDA-MB-468 = test: Growth inhibition of human MDA-MB-468 cells at 10 uM incubated for 48 hrs by sulforhodamine B assay relative to control
smiles,measurement,setting,value
O=C(CNc1ccc(Cl)cc1)Nc1ccc(-c2nc3ccccc3s2)cc1,inhibition of growth at 10 µM,HL-60(TB),29%
same,inhibition of growth at 10 µM,K562,88.1%
same,inhibition of growth at 10 µM,MOLT-4,95.6%
same,inhibition of growth at 10 µM,RPMI-8226,54%
same,inhibition of growth at 10 µM,SR,88.5%
same,inhibition of growth at 10 µM,A549,11%
same,inhibition of growth at 10 µM,NCI-H226,41.9%
same,inhibition of growth at 10 µM,NCI-H23,60.9%
same,inhibition of growth at 10 µM,NCI-H322M,19.7%
same,inhibition of growth at 10 µM,NCI-H522,194%
same,inhibition of growth at 10 µM,HCC 2998,116%
same,inhibition of growth at 10 µM,HT-29,52.1%
same,inhibition of growth at 10 µM,KM12,19.3%
same,inhibition of growth at 10 µM,SF-268,75.9%
same,inhibition of growth at 10 µM,SF-295,5.37%
same,inhibition of growth at 10 µM,SF-539,21.9%
same,inhibition of growth at 10 µM,SNB-19,36.4%
same,inhibition of growth at 10 µM,U-251,73.7%
same,inhibition of growth at 10 µM,Malme-3M,130%
same,inhibition of growth at 10 µM,M14,55.8%
same,inhibition of growth at 10 µM,MDA-MB-435,37.2%
same,inhibition of growth at 10 µM,SK-MEL-5,75%
same,inhibition of growth at 10 µM,UACC-257,9.09%
same,inhibition of growth at 10 µM,UACC-62,69.9%
same,inhibition of growth at 10 µM,IGROV-1,65.7%
same,inhibition of growth at 10 µM,OVCAR-3,71.1%
same,inhibition of growth at 10 µM,OVCAR-4,76.9%
same,inhibition of growth at 10 µM,OVCAR-5,-21.1%
same,inhibition of growth at 10 µM,OVCAR-8,33.6%
same,inhibition of growth at 10 µM,SK-OV-3,10.2%
same,inhibition of growth at 10 µM,786-0,73%
same,inhibition of growth at 10 µM,ACHN,77.2%
same,inhibition of growth at 10 µM,RXF 393,15.8%
same,inhibition of growth at 10 µM,SN12C,53.2%
same,inhibition of growth at 10 µM,TK-10,-18.4%
same,inhibition of growth at 10 µM,UO-31,35%
same,inhibition of growth at 10 µM,PC-3,14.7%
same,inhibition of growth at 10 µM,DU-145,29.8%
same,inhibition of growth at 10 µM,MCF7,88.5%
same,inhibition of growth at 10 µM,MDA-MB-231,62.4%
same,inhibition of growth at 10 µM,Hs-578T,15.9%
same,inhibition of growth at 10 µM,BT-549,83.3%
same,inhibition of growth at 10 µM,T47D,95.4%
same,inhibition of growth at 10 µM,MDA-MB-468,111%
O=C(CNc1nc2ccccc2s1)Nc1ccc(-c2nc3ccccc3s2)cc1,inhibition of growth at 10 µM,HL-60(TB),0.87%
same,inhibition of growth at 10 µM,K562,4.87%
same,inhibition of growth at 10 µM,MOLT-4,15.8%
same,inhibition of growth at 10 µM,RPMI-8226,-7.46%
same,inhibition of growth at 10 µM,SR,8.72%
same,inhibition of growth at 10 µM,A549,-0.04%
same,inhibition of growth at 10 µM,NCI-H226,7.62%
same,inhibition of growth at 10 µM,NCI-H23,11.2%
same,inhibition of growth at 10 µM,NCI-H322M,7.75%
same,inhibition of growth at 10 µM,NCI-H522,8.76%
same,inhibition of growth at 10 µM,HCC 2998,7.87%
same,inhibition of growth at 10 µM,HT-29,-8.9%
same,inhibition of growth at 10 µM,KM12,0.84%
same,inhibition of growth at 10 µM,SF-268,7.92%
same,inhibition of growth at 10 µM,SF-295,-7.45%
same,inhibition of growth at 10 µM,SF-539,-7.1%
same,inhibition of growth at 10 µM,SNB-19,-0.11%
same,inhibition of growth at 10 µM,U-251,10.9%
same,inhibition of growth at 10 µM,Malme-3M,1.87%
same,inhibition of growth at 10 µM,M14,-15.4%
same,inhibition of growth at 10 µM,MDA-MB-435,-8.66%
same,inhibition of growth at 10 µM,SK-MEL-5,-2.93%
same,inhibition of growth at 10 µM,UACC-257,-1.9%
same,inhibition of growth at 10 µM,UACC-62,5.38%
same,inhibition of growth at 10 µM,IGROV-1,33.4%
same,inhibition of growth at 10 µM,OVCAR-3,2.04%
same,inhibition of growth at 10 µM,OVCAR-4,-1.76%
same,inhibition of growth at 10 µM,OVCAR-5,1.6%
same,inhibition of growth at 10 µM,OVCAR-8,-2.25%
same,inhibition of growth at 10 µM,SK-OV-3,-7.21%
same,inhibition of growth at 10 µM,786-0,-1.86%
same,inhibition of growth at 10 µM,ACHN,-6.65%
same,inhibition of growth at 10 µM,RXF 393,-12.5%
same,inhibition of growth at 10 µM,SN12C,-2.68%
same,inhibition of growth at 10 µM,TK-10,3.3%
same,inhibition of growth at 10 µM,UO-31,19.5%
same,inhibition of growth at 10 µM,PC-3,4.99%
same,inhibition of growth at 10 µM,DU-145,-5.64%
same,inhibition of growth at 10 µM,MCF7,75.2%
same,inhibition of growth at 10 µM,MDA-MB-231,0.75%
same,inhibition of growth at 10 µM,Hs-578T,-0.48%
same,inhibition of growth at 10 µM,BT-549,-6.3%
same,inhibition of growth at 10 µM,T47D,26.1%
same,inhibition of growth at 10 µM,MDA-MB-468,118%
